Measurements: patent publication US20240327444A1, “Method for Purifying Nucleotides, Device for Purifying Nucleotides, Hy-Drophobic Reagent, and Hydrophobic Substrate” (Japan Science and Technology Agency, priority 2021, published 2024)
“Also recorded” adds a separate entry of the source.

Legend:
Assay type in all cases: cell-based
HeLa cells [1] = assay: Translation activity of NanoLuc luciferase mRNA (capped with cap analog, reverse-phase HPLC purified) lipofected into HeLa cells (FIG. 30, 31)
Method: In (A) of the figure, a cap analog compound was added, a NanoLuc luciferase mRNA (650-base-long) was transcriptionally synthesized using T7 RNA polymerase, and the transcription reaction was analyzed by denaturing polyacrylamide gel (5%, containing 7.5 M urea as a denaturant) electrophoresis. The composition of the transcription reaction liquid and the reaction conditions are shown below.
15 ng/μL dsDNA transcription template (PCR product of 676-bp containing T7 promoter sequence 5′TAATACGACTCACTATAG3′-(SEQ ID NO: 1) and containing a NanoLuc luciferase gene coding region derived from a pNL1.1 TK vector (Promega)), 2 mM ATP, 2 mM UTP, 2 mM CTP, 2 mM GTP or [0.5 mM GTP+2 mM Cap Analog], 40 mM Tris-HCl (pH 8.0), 8 mM MgCl2, 2 mM spermidine, 5 mM DTT, 10 units/μL T7 RNA polymerase (Takara Bio Inc.).
FIG. 30 is a diagram showing the evaluation of the translation activity of a NanoLuc luciferase mRNA after reverse-phase HPLC isolation and purification. The activity was indicated with the expression level of the mRNA prepared without addition of the cap analog being 1.
FIG. 31 is a diagram showing the evaluation of the translation activity of a NanoLuc luciferase mRNA after reverse-phase HPLC isolation and purification. The activity was indicated with the expression level of the mRNA prepared without addition of the cap analog being 1. […]

[2] = system: NF-κB reporter (Luc)-HEK 293 cells; assay: Evaluation of intracellular immune response, NF-κB reporter luciferase assay (FIG. 43, 45); details: FIG. 45; HEK 293 NF-kB cells, 50 ng and 100 ng mRNA, 24 hours
Method: NF-κB reporter (Luc)-HEK 293 cells (BPS Bioscience Inc.) were cultivated (37° C., 5% CO2) in a Dulbecco's modified Eagle's medium (DMEM; WAKO) with addition of 10% fetal bovine serum (FBS; Invitrogen), 100 μg/ml of Hygromycin B. The day before transfection, NF-κB reporter (Luc)-HEK 293 cells were seeded in a 48-well plate (7.5×10^4 cells/well). The next day, the medium was removed and replaced with 225 μL/well Opti-MEM (registered trademark) (Thermo Fisher SCIENTIFIC). 0.375 μL Lipofectamine (registered trademark) Messenger MAX (registered trademark) and 12.5 ng mRNA (DiPure) were diluted in 25 μL Opti-MEM (registered trademark) and introduced into cells. After incubation at 37° C. for 5 hours, 50 μL/well 1× Cell Lysis Buffer (Promega) was added to lyse the cells. Luminescence was measured using ONE-Glo (registered trademark) luciferase assay (registered trademark) (Promega). The protein amount was quantified using Pierce (registered trademark) BCA Protein Assay Kit (Thermo Fisher SCIENTIFIC), and the luminescence value was corrected by the number of cells.
NF-κB reporter (Luc)-HEK 293 cells (BPS Bioscience Inc.) were cultivated (37° C., 5% CO2) in a Dulbecco's modified Eagle's medium (DMEM; WAKO) with addition of 10% fetal bovine serum (FBS; Invitrogen), 100 μg/ml of Hygromycin B. The day before transfection, NF-κB reporter (Luc)-HEK 293 cells were seeded in a 48-well plate (1.0×10^5 cells/well). The next day, the medium was removed and replaced with 240 μL/well Opti-MEM (registered trademark) (Thermo Fisher SCIENTIFIC). 0.15 μL Lipofectamine (registered trademark) Messenger MAX (registered trademark) and 100 ng mRNA were diluted in 10 μL Opti-MEM (registered trademark) and introduced into cells. After incubation at 37° C. for 24 hours, 50 μL/well 1× Cell Lysis Buffer (Promega) was added to lyse the cells. Luminescence was measured using ONE-Glo (registered trademark) luciferase assay (registered trademark) (Promega). The protein amount was quantified using Pierce (registered trademark) BCA Protein Assay Kit (Thermo Fisher SCIENTIFIC), and the luminescence value was corrected by the number of cells.

JAWS II cells = assay: Translation activity of Luc2 mRNA transcriptionally synthesized using a cap analog, JAWS II cells (FIG. 38); details: lipofection, after 24 hours, versus Tri_1 (CleanCap Reagent AG structure)
Method: (§1) An RNA was transcriptionally synthesized with T7 RNA polymerase using a double-stranded DNA as a template. The double-stranded DNA of the template was obtained by amplifying pSP73-a-luc2 (described at the end of the experimental section) encoding the Luc2 gene by a PCR reaction using KOD-Plus-Neo (TOYOBO), Fw primer (cgcgttggccgattcatt: SEQ ID NO: 3), Rev primer ([…]: SEQ ID NO: 4) (1.0 ng/μL DNA vector, 1×KOD-Plus-Neo buffer, 0.2 mM dNTPs, 0.3 μM primers, 1.5 mM MgSO4, 0.02 units/μL polymerase). […]
(§2) Deprotection by photoirradiation: The RNA solution was added to a transparent 96-multiwell plate, and irradiated with 365 nm light at a quantity of light of 4 mW/cm^2 for 15 minutes using a MAX-305 light source device (Asahi Spectra Co., Ltd.). […]
FIG. 38 is a diagram showing the result of evaluation of translation activity in JAWS II cells of an RNA transcriptionally synthesized using a cap analog. […] After 24 hours, the cells were lysed and the luminescence of firefly luciferase was measured. […]
Evaluation of intracellular translation activity (JAWS II cells): JAWS II cells (ATCC) were cultivated (37° C., 5% CO2) in Minimum Essential Medium α(MEM α; Thermo Fisher SCIENTIFIC) with addition of 10% fetal bovine serum (FBS; Invitrogen) and GM-CSF (5 ng/mL). […] Luminescence was measured using ONE-Glo (registered trademark) luciferase assay (registered trademark) (Promega).

HeLa cells [3] = assay: Translation activity of Luc2 mRNA transcriptionally synthesized using a cap analog, HeLa cells (FIG. 37); details: lipofection, after 24 hours, versus Tri_1 (CleanCap Reagent AG structure)
Method: as §1, §2
FIG. 37 is a diagram showing the result of evaluation of translation activity in a HeLa cell of RNAs transcriptionally synthesized using a cap analog. […] After 24 hours, the cells were lysed and the luminescence of firefly luciferase was measured. […]
HeLa cells (RIKEN Cell Bank) were cultivated (37° C., 5% CO2) in Dulbecco's modified Eagle's medium (DMEM; WAKO) with addition of 10% fetal bovine serum (FBS; Invitrogen). […] Luminescence was measured using ONE-Glo (registered trademark) luciferase assay (registered trademark) (Promega).

`C[n+]1cn([C@@H]2O[C@H](COP(=O)(O)OP(=O)([O-])OP(=O)(O)OC[C@H]3O[C@@H](n4cnc5c(=O)[nH]c(N)nc54)C(O)[C@H]3O)[C@H](O)C2OCOC(c2ccccc2[N+](=O)[O-])C(C)(C)C)c2nc(N)nc(O)c21` (mixture of isomers) [Cap Analog_2, P1-{N^7-Methyl-2′-O-[2,2-dimethyl-(R/S)-1-(2-nitrophenyl)propyloxy]methylguanosin-5′-yl} P3-guanosin-5′-yl triphosphate] was tested, and the “translation activity compared with mRNA prepared using ARCA cap analog” value (HeLa cells [1]; FIG. 31, mRNA 5 ng/well, cultivated 23 hours) was “higher translation activity compared to the RNA capped with ARCA”.

In the case of `COC1[C@@H](OP(=O)([O-])OC[C@H]2O[C@@H](n3cnc4c(=O)[nH]c(N)nc43)C(O)[C@H]2O)[C@@H](COP(=O)([O-])OP(=O)([O-])OP(=O)([O-])OC[C@H]2O[C@@H](n3c[n+](C)c4c([O-])nc(N)nc43)C(OCOC(c3ccccc3[N+](=O)[O-])C(C)(C)C)[C@H]2O)O[C@H]1n1cnc2c(N)ncnc21.[Na+].[Na+].[Na+].[Na+]` (some centres unmarked) [TriPure_1, Nb-^m7GpppA(2′OCH3)pG], the “intracellular immune response (NF-κB reporter luminescence)” value [2] is reported as “lower immune response than conventional mRNAs synthesized using ARCA”, the “translation activity relative to Tri_1 (firefly luciferase luminescence)” value (JAWS II cells) is reported as “about 24 times” and the “translation activity relative to Tri_1 (firefly luciferase luminescence)” value (HeLa cells [3]) is reported as “about 2 times”.

For “P1-(N^2-tBu-nitrobenzyloxycarbonyl-N^7-methylguanosin-5′-yl) P3-guanosin-5′-yl triphosphate [Cap Analog_1]”, the “translation activity (amount of expressed NanoLuc luciferase; expression level of mRNA prepared without cap analog being 1)” value (HeLa cells [1]; FIG. 30, mRNA 20 ng/well, cultivated 7 hours, before and after photoirradiation/deprotection) was “does not show high translation activity unless it is irradiated with light and deprotected; also recorded: can completely inhibit translation activity in the protected state”.
